According to PMC7862291, “Full-length in meso structure and mechanism of rat kynurenine 3-monooxygenase inhibition” (Communications Biology, 2021):
Values joined by “and” are separate entries in the source; they are usually repeats but may differ in a detail not shown here. Identical values can stand only once. Like-named read-outs stand apart in the source and are kept apart here.

Assays:
[1] = test system: KMO; set-up: method as in ref 20 Winkler et al; details: 100 kynurenine, CHO cells, LC/MS; ref 20 Winkler et al; read-out: cellular IC50 (Winkler et al); cited from earlier work
[2] = biological target: T1, Rat KMO (Rattus norvegicus, UniProt O88867); assay: Rat KMO enzyme (cell-free) assay, NADPH consumption by absorbance; type: biochemical
T1 construct: The GST-tagged full-length KMO (1-478) baculovirus vector contained a thrombin cleavage site; GST (thrombin cleavage site between GST and KMO) (N, cleaved yes); made in house; host or cells: Spodoptera frugiperda (Sf9), baculovirus
Description: (§1) Human KMO was purchased from Origene and used to assay compounds. Full-length Rat-KMO purified for crystallisation was used to assay compounds. Full-length Rat-KMO-expressing membranes were used for mutant assays (Fig. 4b) only. […] Images were taken using Odyssey CLX (LI-COR Biosciences) and quantified using ImageStudio2.0 (LI-COR Biosciences) software.
(§2) Test compounds were dissolved in DMSO and diluted with assay buffer containing 50 mM HEPES, 2 mM MgCl2, 0.5 mM EGTA, 1 mM DTT, 0.05% Tween20 and 0.005% of antiform SI (pH = about 7.9) to prepare a 4% DMSO solution. […] After 5 min of pre-incubation, reactions were started by adding 10 μL of substrate solution containing 2.4 mM kynurenine and 0.6 mM NADPH. Reactions were run for 90 min at 30 °C, then terminated by adding 5 μL of stop buffer (40 mM maleimide, 2 mM WST-9 and 0.1 mM 1-methoky PMS in water). […] Liposomal assays were performed in the same manner except that the composition of the assay buffer was changed (phosphate-buffered saline, 2 mM MgCl2, 1 mM DTT, 0.05% Tween 20).
(§3) Compound assays were analysed and plotted on graphs using Prism (GraphPad Software Inc. San Diego, CA, USA).

[3] = biological target: T2, HEK293 cells stably expressing human KMO (Homo sapiens, UniProt O15229); assay: Cell-based human KMO inhibition assay (LC/MS of 3-hydroxykynurenine); details: for inhibition rate, Hs-KMO cellular assay (Figure 1C source data): duplicates
T2 construct: expressed in transfected cells
Description: (§4) HEK293 cells stably expressing human or rat KMO were maintained in DMEM containing 10% fetal bovine serum, 50 units/mL penicillin, 50 μg/mL streptomycin and 0.2 mg⁄mL zeocine. […] After 2 overnights, the medium was replaced with 10 μL/well of assay buffer (1 × HBSS containing 20 mM HEPES). Ten microliters per well of the diluted test compounds (final, 0–30 μM, 0.3% DMSO) were added to the respective wells. After ~30 min of pre-incubation at 37 °C, reactions were started by adding 20 μL of substrate solution containing 0.2 mM kynurenine. Reactions were run for 2 h at 37 °C, the assay buffer was discarded and the plate was immediately frozen and stored at −30 °C until LC/MS analysis.
(§5) An 80 µL volume of cold acetonitrile with 2% formic acid was added to the cell pellet in a 384-well plate and centrifuged at 3000 rpm for 10 min at 4 °C. A 40 µL volume of the supernatant was transferred to a new 384-well plate and evaporated to dryness under nitrogen gas at 45 °C. The residue was reconstituted in 100 µL of acetonitrile/water (10:90, v/v) with 0.1% formic acid, and 1 µL was injected into the LC-MS/MS system.
(§6) LC/MS/MS was performed on a Shimadzu UFLC Nexera X2 (Shimadzu Corporation, Japan) and an QTRAP® 5500 LC-MS/MS System (SCIEX, Framingham, USA). Chromatographic separation was performed using an Allure PFP Propyl analytical column (5 µm, 2.1 × 100 mm) maintained at 50 °C. The autosampler temperature was set at 15 °C. The mobile phase consisted of formic acid/water/acetonitrile/methanol (0.5/500/250/250, v/v/v/v) and the flow rate was set at 0.3 mL/min. 3-hydroxykynurenine was eluted from the LC column at a retention time of 1.2 min. The MS system was operated using electrospray ionization (ESI) in positive mode. The optimum conditions were curtain gas, 20 psi; ion spray voltage, 5500 V; heated nebulizer temperature (TEM), 700 °C; nebulizing gas (GS1), 70 psi; and heater gas (GS2), 70 psi. […] Analyst® software (SCIEX, Framingham, USA) was used for system control and MultiQuant™ Software (SCIEX, Framingham, USA) was used for data analysis.
as §3

[4] = biological target: T3, hKMO (Homo sapiens, UniProt O15229); assay: Human KMO enzyme (cell-free) assay, NADPH consumption by absorbance; type: biochemical
T3 construct: purchased Origene
Description: as §1, §2, §3

[5] = biological target: T4, HEK293 cells stably expressing rat KMO (Rattus norvegicus, UniProt O88867); assay: Cell-based rat KMO inhibition assay (LC/MS of 3-hydroxykynurenine); details: duplicates
T4 construct: expressed in transfected cells
Description: as §4, §5, §6, §3

[6] = test system: KMO; set-up: method as in ref 27 Jacobs et al; details: 600 μM kynurenine, recombinant protein, fluorescence; ref 27 Jacobs et al; cited from earlier work
[7] = Pharmacokinetic (brain penetration) study in rats; type: in vivo; details: Sprague-Dawley Crl:CD(SD), rat, male SD rats, 10 mg/kg ip, 1 h after a single administration
Description: Brain penetration studies were conducted in non-fasted male SD rats [Sprague-Dawley rats Crl:CD(SD), 8 weeks of age]. Compound 1 was intraperitoneally (ip) administered at 10 mg/kg in a solution of saline containing 10% dimethylformamide, 10% propylene glycol, and 4% 1 normality (N) sodium hydrate. […] Blood and brain were collected at 1 h after a single administration. The test compound in plasma samples or brain samples was extracted by deproteination with acetonitrile, and then analysed using LC-MS/MS.

T3 sequence (O15229 whole entry): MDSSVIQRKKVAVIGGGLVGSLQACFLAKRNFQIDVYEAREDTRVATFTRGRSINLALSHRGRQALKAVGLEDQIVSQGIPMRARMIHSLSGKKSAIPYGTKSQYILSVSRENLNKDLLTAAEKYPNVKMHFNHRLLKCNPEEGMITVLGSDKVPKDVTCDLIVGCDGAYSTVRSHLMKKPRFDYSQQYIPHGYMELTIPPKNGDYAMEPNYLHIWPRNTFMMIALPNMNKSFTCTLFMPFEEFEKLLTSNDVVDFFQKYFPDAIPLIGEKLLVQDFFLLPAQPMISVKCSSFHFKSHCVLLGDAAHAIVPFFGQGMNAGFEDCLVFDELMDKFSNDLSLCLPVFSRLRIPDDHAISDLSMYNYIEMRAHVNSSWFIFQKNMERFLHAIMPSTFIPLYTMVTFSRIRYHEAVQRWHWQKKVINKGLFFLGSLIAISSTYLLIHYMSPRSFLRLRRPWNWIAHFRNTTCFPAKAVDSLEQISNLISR
T2 sequence (O15229 whole entry): as above
T1 sequence (O88867 whole entry): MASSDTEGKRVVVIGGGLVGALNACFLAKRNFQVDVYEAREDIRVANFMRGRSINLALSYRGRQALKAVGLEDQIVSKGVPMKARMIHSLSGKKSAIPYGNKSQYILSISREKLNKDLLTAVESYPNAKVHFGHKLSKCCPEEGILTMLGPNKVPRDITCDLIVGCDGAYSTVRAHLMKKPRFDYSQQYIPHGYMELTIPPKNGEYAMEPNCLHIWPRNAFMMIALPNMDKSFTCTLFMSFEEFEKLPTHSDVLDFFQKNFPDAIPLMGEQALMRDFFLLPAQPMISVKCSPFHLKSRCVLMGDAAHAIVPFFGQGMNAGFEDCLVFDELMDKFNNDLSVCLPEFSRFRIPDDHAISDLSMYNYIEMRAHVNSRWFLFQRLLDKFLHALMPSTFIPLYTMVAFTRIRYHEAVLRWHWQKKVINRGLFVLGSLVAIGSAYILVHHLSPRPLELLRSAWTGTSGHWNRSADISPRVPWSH
T4 sequence (O88867 whole entry): as above

COc1ccc(S(=O)(=O)Nc2nc(-c3cccc([N+](=O)[O-])c3)cs2)cc1OC [Ro 61-8048, reference compound]
IC50 [1]: 640 nM
inhibition rate, Rat-KMO cell-free assay (Figure 1B source data) ([2]; conc 0.03 μM, duplicates): 9.186% and 13.905%
inhibition rate, Rat-KMO cell-free assay (Figure 1B source data) ([2]; conc 0.1 μM, duplicates): 21.990% and 21.221%
inhibition rate, Rat-KMO cell-free assay (Figure 1B source data) ([2]; conc 0.3 μM, duplicates): 47.520% and 47.997%
inhibition rate, Rat-KMO cell-free assay (Figure 1B source data) ([2]; conc 1 μM, duplicates): 71.114% and 72.121%
inhibition rate, Rat-KMO cell-free assay (Figure 1B source data) ([2]; conc 3 μM, duplicates): 77.185% and 81.347%
inhibition rate, Rat-KMO cell-free assay (Figure 1B source data) ([2]; conc 10 μM, duplicates): 87.099% and 89.538%
inhibition rate, Rat-KMO cell-free assay (Figure 1B source data) ([2]; conc 30 μM, duplicates): 98.075% and 95.980%
inhibition rate, Rat-KMO cell-free assay (Figure 1B source data) ([2]; conc 100 μM, duplicates): 89.963% and 91.580%
IC50 ([3]; 100 μM kynurenine, HEK293, LC/MS, species not given, read-out: cellular IC50 (this study)): 1200 nM
inhibition rate, Hs-KMO cellular assay (Figure 1C source data) ([3]; conc 0.03 μM): 4.914% and 11.092%
inhibition rate, Hs-KMO cellular assay (Figure 1C source data) ([3]; conc 0.1 μM): 7.800% and 13.947%
inhibition rate, Hs-KMO cellular assay (Figure 1C source data) ([3]; conc 0.3 μM): 9.982% and 16.379%
inhibition rate, Hs-KMO cellular assay (Figure 1C source data) ([3]; conc 1 μM): 34.540% and 30.293%
inhibition rate, Hs-KMO cellular assay (Figure 1C source data) ([3]; conc 3 μM): 100.863% and 99.409%
inhibition rate, Hs-KMO cellular assay (Figure 1C source data) ([3]; conc 10 μM): 104.869% and 104.896%
inhibition rate, Hs-KMO cellular assay (Figure 1C source data) ([3]; conc 30 μM): 105.453%
IC50 ([4]; 1200 μM kynurenine, recombinant protein, absorbance, species not given, read-out: IC50 (cell-free assay, this study)): 1400 nM
inhibition rate, Hs-KMO cell-free assay (Figure 1A source data) ([4]; conc 0.03 μM, duplicates): 7.785% and 11.650%
inhibition rate, Hs-KMO cell-free assay (Figure 1A source data) ([4]; conc 0.1 μM, duplicates): 5.377% and 7.729%
inhibition rate, Hs-KMO cell-free assay (Figure 1A source data) ([4]; conc 0.3 μM, duplicates): 12.406% and 14.871%
inhibition rate, Hs-KMO cell-free assay (Figure 1A source data) ([4]; conc 1 μM, duplicates): 37.359% and 37.779%
inhibition rate, Hs-KMO cell-free assay (Figure 1A source data) ([4]; conc 3 μM, duplicates): 72.366% and 74.382%
inhibition rate, Hs-KMO cell-free assay (Figure 1A source data) ([4]; conc 10 μM, duplicates): 94.630%
inhibition rate, Hs-KMO cell-free assay (Figure 1A source data) ([4]; conc 30 μM, duplicates): 102.611% and 104.600%
inhibition rate, Hs-KMO cell-free assay (Figure 1A source data) ([4]; conc 100 μM, duplicates): 98.579% and 94.322%
inhibition rate, Rat-KMO cellular assay (Figure 1D source data) ([5]; conc 0.03 μM): 12.914% and 13.940%
inhibition rate, Rat-KMO cellular assay (Figure 1D source data) ([5]; conc 0.1 μM): 6.038% and 6.971%
inhibition rate, Rat-KMO cellular assay (Figure 1D source data) ([5]; conc 0.3 μM): 6.605% and 2.668%
inhibition rate, Rat-KMO cellular assay (Figure 1D source data) ([5]; conc 1 μM): 18.248% and 25.802%
inhibition rate, Rat-KMO cellular assay (Figure 1D source data) ([5]; conc 3 μM): 86.872% and 86.727%
inhibition rate, Rat-KMO cellular assay (Figure 1D source data) ([5]; conc 10 μM): 97.726% and 97.601%
inhibition rate, Rat-KMO cellular assay (Figure 1D source data) ([5]; conc 30 μM): 99.995% and 100.184%
IC50 [6]: 780 ± 1000 nM

Cn1c(=O)[nH]c(=O)c2cc(-c3ncccc3-c3ccc(Cl)c(F)c3)ccc21 [Compound 5]
Kp at 1 h ([7]; brain/plasma): 0.8
concentration at 1 h ([7]; brain, read-out: Exposure in brain): 6020 ng/g
concentration at 1 h ([7]; plasma, read-out: Exposure in plasma): 7560 ng/mL

COc1ccc2c(c1)CN(c1nc(C(=O)N(C)c3cc(Cl)c(F)cc3C(=O)O)c(Cl)s1)C2 [Compound 4]
IC50 ([2]; cell-free enzyme assay, high kynurenine): 17 nM
inhibition rate, Rat-KMO cell-free assay (Figure 1B source data) ([2]; conc 0.0003 μM, duplicates): 10.786%
inhibition at 0.0003 µM ([2]; conc 0.0003 μM, duplicates, read-out: inhibition rate, Rat-KMO cell-free assay (Figure 1B source data)): 11.1%
inhibition rate, Rat-KMO cell-free assay (Figure 1B source data) ([2]; conc 0.001 μM, duplicates): 13.043%
inhibition at 0.001 µM ([2]; conc 0.001 μM, duplicates, read-out: inhibition rate, Rat-KMO cell-free assay (Figure 1B source data)): 12.6%
inhibition rate, Rat-KMO cell-free assay (Figure 1B source data) ([2]; conc 0.003 μM, duplicates): 19.707%
inhibition at 0.003 µM ([2]; conc 0.003 μM, duplicates, read-out: inhibition rate, Rat-KMO cell-free assay (Figure 1B source data)): 21.2%
inhibition rate, Rat-KMO cell-free assay (Figure 1B source data) ([2]; conc 0.01 μM, duplicates): 32.767%
inhibition at 0.01 µM ([2]; conc 0.01 μM, duplicates, read-out: inhibition rate, Rat-KMO cell-free assay (Figure 1B source data)): 33%
inhibition rate, Rat-KMO cell-free assay (Figure 1B source data) ([2]; conc 0.03 μM, duplicates): 60.579%
inhibition at 0.03 µM ([2]; conc 0.03 μM, duplicates, read-out: inhibition rate, Rat-KMO cell-free assay (Figure 1B source data)): 60.5%
inhibition rate, Rat-KMO cell-free assay (Figure 1B source data) ([2]; conc 0.1 μM, duplicates): 80.975%
inhibition at 0.1 µM ([2]; conc 0.1 μM, duplicates, read-out: inhibition rate, Rat-KMO cell-free assay (Figure 1B source data)): 83%
inhibition rate, Rat-KMO cell-free assay (Figure 1B source data) ([2]; conc 0.3 μM, duplicates): 95.593%
inhibition at 0.3 µM ([2]; conc 0.3 μM, duplicates, read-out: inhibition rate, Rat-KMO cell-free assay (Figure 1B source data)): 101%
inhibition rate, Rat-KMO cell-free assay (Figure 1B source data) ([2]; conc 1 μM, duplicates): 93.954%
inhibition at 1 µM ([2]; conc 1 μM, duplicates, read-out: inhibition rate, Rat-KMO cell-free assay (Figure 1B source data)): 97.8%
IC50 ([4]; cell-free enzyme assay, high kynurenine, read-out: Human KMO IC50): 14 nM
inhibition at 0.0003 µM ([4]; conc 0.0003 μM, duplicates, read-out: inhibition rate, Hs-KMO cell-free assay (Figure 1A source data)): 8.45%
inhibition rate, Hs-KMO cell-free assay (Figure 1A source data) ([4]; conc 0.001 μM, duplicates): 6.826%
inhibition at 0.001 µM ([4]; conc 0.001 μM, duplicates, read-out: inhibition rate, Hs-KMO cell-free assay (Figure 1A source data)): 4.54%
inhibition rate, Hs-KMO cell-free assay (Figure 1A source data) ([4]; conc 0.003 μM, duplicates): 16.103%
inhibition at 0.003 µM ([4]; conc 0.003 μM, duplicates, read-out: inhibition rate, Hs-KMO cell-free assay (Figure 1A source data)): 15.5%
inhibition rate, Hs-KMO cell-free assay (Figure 1A source data) ([4]; conc 0.01 μM, duplicates): 39.429%
inhibition at 0.01 µM ([4]; conc 0.01 μM, duplicates, read-out: inhibition rate, Hs-KMO cell-free assay (Figure 1A source data)): 34.9%
inhibition rate, Hs-KMO cell-free assay (Figure 1A source data) ([4]; conc 0.03 μM, duplicates): 71.311%
inhibition at 0.03 µM ([4]; conc 0.03 μM, duplicates, read-out: inhibition rate, Hs-KMO cell-free assay (Figure 1A source data)): 74.2%
inhibition rate, Hs-KMO cell-free assay (Figure 1A source data) ([4]; conc 0.1 μM, duplicates): 87.583%
inhibition at 0.1 µM ([4]; conc 0.1 μM, duplicates, read-out: inhibition rate, Hs-KMO cell-free assay (Figure 1A source data)): 92.8%
inhibition rate, Hs-KMO cell-free assay (Figure 1A source data) ([4]; conc 0.3 μM, duplicates): 98.840%
inhibition at 0.3 µM ([4]; conc 0.3 μM, duplicates, read-out: inhibition rate, Hs-KMO cell-free assay (Figure 1A source data)): 106%
inhibition rate, Hs-KMO cell-free assay (Figure 1A source data) ([4]; conc 1 μM, duplicates): 98.570%
inhibition at 1 µM ([4]; conc 1 μM, duplicates, read-out: inhibition rate, Hs-KMO cell-free assay (Figure 1A source data)): 104%
